# Assay results as given in patent US20240101576A1, “HETEROCYCLIC INHIBITORS OF EGFR AND/OR HER2, FOR USE IN THE TREATMENT OF CANCER” (Scorpion Therapeutics, Inc., priority 2020, published 2024).
# Assays:
# Type in all cases: cell-based
# [1] = molecular target: T1, EGFR L858R/C797S (Ba/F3 cells) (Homo sapiens, UniProt P00533, C797S/L858R); experiment: Inhibitor activity on EGFR phosphorylation (pEGFR AlphaLISA, 2 h), Ba/F3 EGFR L858R/C797S
# T1 construct: expressed in transfected cells; host or cells: Ba/F3 (murine pro-B cells), retroviral transduction, puromycin selection, IL3-independent pool
# T1 sequence (P00533 25-1210 C797S/L858R): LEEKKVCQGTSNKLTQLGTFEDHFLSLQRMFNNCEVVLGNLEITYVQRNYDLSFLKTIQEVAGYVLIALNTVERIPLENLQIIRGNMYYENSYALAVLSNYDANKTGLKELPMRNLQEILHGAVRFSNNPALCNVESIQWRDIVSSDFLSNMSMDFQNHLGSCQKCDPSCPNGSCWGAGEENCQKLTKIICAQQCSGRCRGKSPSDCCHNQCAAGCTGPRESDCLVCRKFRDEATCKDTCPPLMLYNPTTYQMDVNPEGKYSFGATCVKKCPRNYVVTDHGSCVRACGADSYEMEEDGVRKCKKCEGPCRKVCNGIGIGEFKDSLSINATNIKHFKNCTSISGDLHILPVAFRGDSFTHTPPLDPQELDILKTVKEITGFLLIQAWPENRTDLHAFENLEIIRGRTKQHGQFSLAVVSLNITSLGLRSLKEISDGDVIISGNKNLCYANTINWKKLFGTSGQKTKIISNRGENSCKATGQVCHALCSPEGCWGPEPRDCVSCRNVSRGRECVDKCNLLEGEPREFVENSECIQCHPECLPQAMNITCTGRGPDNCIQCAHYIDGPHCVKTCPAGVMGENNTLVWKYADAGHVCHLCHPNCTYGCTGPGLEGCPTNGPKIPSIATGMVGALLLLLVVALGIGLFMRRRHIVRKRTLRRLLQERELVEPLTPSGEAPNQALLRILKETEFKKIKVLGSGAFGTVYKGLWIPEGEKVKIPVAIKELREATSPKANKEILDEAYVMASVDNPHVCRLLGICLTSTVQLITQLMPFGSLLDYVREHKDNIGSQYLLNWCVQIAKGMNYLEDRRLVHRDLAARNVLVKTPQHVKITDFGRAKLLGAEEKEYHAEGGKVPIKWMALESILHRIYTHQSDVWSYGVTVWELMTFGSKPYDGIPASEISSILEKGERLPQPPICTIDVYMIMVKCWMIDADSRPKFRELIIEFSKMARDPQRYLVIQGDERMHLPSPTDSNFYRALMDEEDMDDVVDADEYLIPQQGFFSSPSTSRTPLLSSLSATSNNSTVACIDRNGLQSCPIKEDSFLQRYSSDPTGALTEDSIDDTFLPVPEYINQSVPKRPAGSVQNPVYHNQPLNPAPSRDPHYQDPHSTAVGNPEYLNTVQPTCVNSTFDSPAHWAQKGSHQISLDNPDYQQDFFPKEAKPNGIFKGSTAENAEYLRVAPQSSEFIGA
# Text: (§1) Example B. Inhibitor Activity on EGFR phosphorylation (pEGFR)
# (§2) EGFR mutant Ba/F3 cells were generated by transduction with retrovirus containing vectors expressing EGFR L858R, EGFR exon 19del, EGFR L858R/C797S, EGFR exon 20 NPG Ins D770_N771, EGFR exon 20 ASV Ins V769_D770, or EGFR exon 20 SVD Ins D770_N771 genes along with a puromycin selection marker. Transduced cells are selected with puromycin for 7 days and are then be transferred into culture media without Interleukin 3 (IL3). Surviving cells are confirmed to express EGFR by Western blot and maintained as a pool. CUTO14 cells were obtained from Dr. Robert C. Doebele at the University of Colorado. The IC50 date are included in Table 6 and Table 7.
# (§3) 1.1 Cells are harvested from flask into cell culture medium and the cell number counted.
# (§4) 1.2 Cells are diluted with culture medium to the desired density and 40 μL of cell suspension is added into each well of 384-well cell culture plate and the seeding density is 50K cells/well (Ba/F3) or 12.5K cells/well (CUTO14).
# (§5) 2 Compound Preparation and Treatment
# (§6) 2.1 Test compounds are dissolved to 10 mM in a DMSO stock solution. 45 μL of stock solution is transferred to a 384 polypropylene plate (pp-plate). Perform 3-fold, 10-point dilution via transferring 15 μL compound into 30 μL DMSO using a TECAN (EVO200) liquid handler.
# (§7) 2.2 Spin plates at room temperature at 1,000 RPM for 1 minute.
# (§8) 2.3 Transfer 5 nL of diluted compound from compound source plate into the cell plate.
# (§9) 2.4 After compound treatment for 2 hours, perform pEGFR detection by AlphaLISA for compound treatment plates as described in “Detection” section.
# (§10) 3 Detection by pEGFR AlphaLISA (Perkin-Elmer)
# (§11) 3.1 Plates are removed from incubators and equilibrated at room temperature for 10 minutes, and media was removed
# (§12) 3.2 10 μL of lysis buffer is added and plates shaken at 600 rpm for 1 hr.
# (§13) 3.3 Prepare acceptor mix just before use and dispense 5 μL of acceptor mix to all the wells. Shake 350 rpm for Ihr in the dark
# (§14) 3.4 Prepare donor mix under low light conditions prior to use. Dispense 5 μL of donor mix to all the wells. Mix well on the shaker, seal and wrap in aluminum foil and incubate 1.5 hrs at room temperature in the dark
# (§15) 3.5 Transfer 18.5 μL mixture to OptiPlate 384, and read using an Envision. The IC50 date were included in Table 6 and Table 7.
# [2] = molecular target: T2, EGFR exon 20 ASV Ins V769_D770 (Ba/F3 cells) (Homo sapiens, UniProt P00533, INS769ASV); experiment: Inhibitor activity on EGFR-dependent cell growth (CellTiter-Glo, 72 h), Ba/F3 EGFR exon 20 ASV Ins; conditions: read-out: BaF3 ASV IC50
# T2 construct: expressed in transfected cells; host or cells: Ba/F3 (murine pro-B cells), retroviral transduction, puromycin selection, IL3-independent pool
# How it was run: (§16)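 IC50s derive from a sigmoidal dose–response fit of CellTiter-Glo signal. The signal was normalised between […]-treated cells and cell-free medium. Ba/F3 mutant-EGFR cells, seeded at 400–800/well depending on the line, had 72 h of exposure to a 10-point, 3-fold compound series.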
# EGFR WT (Ba/F3 cells) = molecular target: T3, EGFR WT (Ba/F3 cells) (Homo sapiens, UniProt P00533); experiment: Inhibitor activity on EGFR-dependent cell growth (CellTiter-Glo, 72 h), Ba/F3 EGFR WT; conditions: read-out: BaF3 WT IC50
# T3 construct: expressed in transfected cells; host or cells: Ba/F3 (murine pro-B cells), retroviral transduction, puromycin selection, maintained with EGF
# T3 sequence (P00533 25-1210): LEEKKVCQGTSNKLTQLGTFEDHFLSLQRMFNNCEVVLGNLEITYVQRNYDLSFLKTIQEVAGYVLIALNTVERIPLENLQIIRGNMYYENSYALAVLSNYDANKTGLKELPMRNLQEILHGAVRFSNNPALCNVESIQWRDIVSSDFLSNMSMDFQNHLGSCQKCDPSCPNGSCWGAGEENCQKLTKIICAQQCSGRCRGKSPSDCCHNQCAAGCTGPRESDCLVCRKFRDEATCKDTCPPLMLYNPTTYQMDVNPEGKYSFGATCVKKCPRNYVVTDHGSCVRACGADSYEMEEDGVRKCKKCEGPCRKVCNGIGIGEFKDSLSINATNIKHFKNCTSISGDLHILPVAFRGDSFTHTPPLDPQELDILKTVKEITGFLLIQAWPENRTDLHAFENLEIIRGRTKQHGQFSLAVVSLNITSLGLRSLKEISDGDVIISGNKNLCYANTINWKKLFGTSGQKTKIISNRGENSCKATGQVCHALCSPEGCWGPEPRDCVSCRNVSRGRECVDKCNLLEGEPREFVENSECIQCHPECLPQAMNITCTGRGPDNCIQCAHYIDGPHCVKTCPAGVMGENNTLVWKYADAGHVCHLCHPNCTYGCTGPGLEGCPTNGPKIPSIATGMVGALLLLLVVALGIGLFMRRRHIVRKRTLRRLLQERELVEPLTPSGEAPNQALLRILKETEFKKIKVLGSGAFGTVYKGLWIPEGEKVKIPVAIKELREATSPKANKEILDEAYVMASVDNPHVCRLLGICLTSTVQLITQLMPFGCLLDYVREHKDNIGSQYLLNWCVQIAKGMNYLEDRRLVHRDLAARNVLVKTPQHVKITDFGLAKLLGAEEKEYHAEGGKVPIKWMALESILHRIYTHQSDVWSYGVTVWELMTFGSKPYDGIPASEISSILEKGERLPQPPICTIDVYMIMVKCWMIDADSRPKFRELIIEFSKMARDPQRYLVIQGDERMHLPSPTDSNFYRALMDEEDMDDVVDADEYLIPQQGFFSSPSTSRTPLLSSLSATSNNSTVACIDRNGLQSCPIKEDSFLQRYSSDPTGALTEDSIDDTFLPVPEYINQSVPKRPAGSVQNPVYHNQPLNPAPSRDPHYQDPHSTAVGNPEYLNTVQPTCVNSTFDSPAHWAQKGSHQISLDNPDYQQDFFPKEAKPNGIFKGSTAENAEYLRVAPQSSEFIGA
# How it was run: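 This growth assay used Ba/F3 cells that depend on wild-type EGFR and are kept in EGF without IL3. Compounds were made up as 10 mM DMSO stocks and diluted 3-fold over 10 points. 120 nL went onto 600 cells/well. After 72 hours, 40 μL CellTiter-Glo was added and luminescence read on EnVision after 30 min.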
# [3] = molecular target: T1, EGFR L858R/C797S (Ba/F3 cells); experiment: Inhibitor activity on EGFR-dependent cell growth (CellTiter-Glo, 72 h), Ba/F3 EGFR L858R/C797S; conditions: read-out: BaF3 L858R/C797S IC50
# Text: Example A. Inhibitor Activity on EGFR-Dependent Cell Growth
# Cell lines are generated by transducing Ba/F3 cells with retroviruses containing vectors with EGFR WT, EGFR L858R, EGFR exon 19del, EGFR L858R/C797S, EGFR exon 20 NPG Ins D770_N771, EGFR exon 20 ASV Ins V769_D770, EGFR exon 20 SVD Ins D770_N771, or EGFR exon 20 FQEA Ins A763_V764 genes and a puromycin selection marker. Transduced cells are selected with puromycin for 7 days and are then be transferred into culture media without Interleukin 3 (IL3). EGFR WT cells are maintained with supplemental EGF. Surviving cells are confirmed to express EGFR by Western blot and maintained as a pool. The IC50 date were included in Table 6 and Table 7.
# as §3
# 1.2 Cells are diluted with culture medium to the desired density and 40 μL of cell suspension is added into each well of 384-well cell culture plate and the seeding density is 800 (FQEA, exon 19del), 600 (WT, NPG, L858R/C797S), or 400 (ASV, SVD, L858R) cells/well.
# as §5, §6, §7
# 2.3 Transfer 120 nL of diluted compound from compound source plate into the cell plate.
# 2.4 After compound treatment for 72 hours, perform CTG detection for compound treatment plates as described in “Detection” section.
# 3.1 Plates are removed from incubators and equilibrated at room temperature for 15 minutes.
# 3.2 Thaw the CellTiter Glo reagents and allow to equilibrate to room temperature before the experiment.
# 3.3 Add 40 μL of CellTiter-Glo reagent into each well (at 1:1 to culture medium). Then place the plates at room temperature for 30 min followed by reading on EnVision.
# 4.1 Inhibition activity is calculated following the formula below:
# % Inhibition=100×(LumHC−LumSample)/(LumHC−LumLC) • where HC is obtained from cells treated with 0.1% DMSO only; and LC is obtained from culture medium only.
# 4.2 2. Calculate the IC50 by fitting the Curve using Xlfit (v5.3.1.3), equation 201.
# Y=Bottom+(Top−Bottom)/(1+10^((Log IC50−X)*HillSlope))
# EGFR (CUTO14 cells) = EGFR (CUTO14 cells) (Homo sapiens, UniProt P00533); experiment: Inhibitor activity on EGFR phosphorylation (pEGFR AlphaLISA, 2 h), CUTO14 cells
# Text: as §1, §2, §3, §4, §5, §6, §7, §8, §9, §10, §11, §12, §13, §14, §15
# [4] = molecular target: T4, EGFR exon 20 SVD Ins D770_N771 (Ba/F3 cells) (Homo sapiens, UniProt P00533, INS770SVD); experiment: Inhibitor activity on EGFR-dependent cell growth (CellTiter-Glo, 72 h), Ba/F3 EGFR exon 20 SVD Ins; conditions: read-out: BaF3 SVD IC50
# T4 construct: expressed in transfected cells; host or cells: Ba/F3 (murine pro-B cells), retroviral transduction, puromycin selection, IL3-independent pool
# How it was run: as §16
# [5] = molecular target: T5, EGFR exon 20 NPG Ins D770_N771 (Ba/F3 cells) (Homo sapiens, UniProt P00533, INS770NPG); experiment: Inhibitor activity on EGFR-dependent cell growth (CellTiter-Glo, 72 h), Ba/F3 EGFR exon 20 NPG Ins; conditions: read-out: BaF3 NPG IC50
# T5 construct: expressed in transfected cells; host or cells: Ba/F3 (murine pro-B cells), retroviral transduction, puromycin selection, IL3-independent pool
# T5 sequence (P00533 with tags, fused parts or gaps INS770NPG): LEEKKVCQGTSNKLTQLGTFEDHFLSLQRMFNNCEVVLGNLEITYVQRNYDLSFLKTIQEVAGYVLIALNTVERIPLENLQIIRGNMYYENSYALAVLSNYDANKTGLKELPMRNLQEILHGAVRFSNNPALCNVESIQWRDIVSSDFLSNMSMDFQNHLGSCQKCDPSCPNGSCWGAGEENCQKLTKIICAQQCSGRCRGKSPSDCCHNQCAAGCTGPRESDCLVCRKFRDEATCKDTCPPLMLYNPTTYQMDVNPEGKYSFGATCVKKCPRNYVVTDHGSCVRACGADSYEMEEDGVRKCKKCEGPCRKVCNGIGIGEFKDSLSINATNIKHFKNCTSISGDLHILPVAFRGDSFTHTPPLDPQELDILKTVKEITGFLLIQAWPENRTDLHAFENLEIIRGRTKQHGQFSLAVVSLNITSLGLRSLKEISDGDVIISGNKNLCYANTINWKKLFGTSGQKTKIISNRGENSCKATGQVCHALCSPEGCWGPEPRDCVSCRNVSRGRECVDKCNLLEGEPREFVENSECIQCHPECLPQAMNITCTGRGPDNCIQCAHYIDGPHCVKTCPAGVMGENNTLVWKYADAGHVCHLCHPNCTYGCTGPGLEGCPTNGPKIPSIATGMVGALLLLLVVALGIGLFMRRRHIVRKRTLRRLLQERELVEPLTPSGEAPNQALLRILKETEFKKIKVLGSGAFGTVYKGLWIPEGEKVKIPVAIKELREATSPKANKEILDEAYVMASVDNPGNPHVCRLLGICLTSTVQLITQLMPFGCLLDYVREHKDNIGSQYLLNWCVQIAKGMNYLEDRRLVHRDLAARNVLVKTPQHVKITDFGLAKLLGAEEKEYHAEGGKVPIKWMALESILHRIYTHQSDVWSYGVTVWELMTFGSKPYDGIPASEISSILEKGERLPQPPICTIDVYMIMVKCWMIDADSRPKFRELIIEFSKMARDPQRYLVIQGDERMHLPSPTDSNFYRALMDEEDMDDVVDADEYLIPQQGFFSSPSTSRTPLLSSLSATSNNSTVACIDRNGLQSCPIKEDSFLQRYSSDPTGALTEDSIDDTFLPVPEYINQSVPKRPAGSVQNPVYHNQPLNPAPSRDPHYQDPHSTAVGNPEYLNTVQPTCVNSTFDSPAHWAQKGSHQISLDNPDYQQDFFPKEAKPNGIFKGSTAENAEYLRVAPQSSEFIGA
# How it was run: as §16
# EGFR L858R (Ba/F3 cells) [6] = molecular target: T6, EGFR L858R (Ba/F3 cells) (Homo sapiens, UniProt P00533, L858R); experiment: Inhibitor activity on EGFR-dependent cell growth (CellTiter-Glo, 72 h), Ba/F3 EGFR L858R; conditions: read-out: BaF3 L858R IC50
# T6 construct: expressed in transfected cells; host or cells: Ba/F3 (murine pro-B cells), retroviral transduction, puromycin selection, IL3-independent pool
# T6 sequence (P00533 25-1210 L858R): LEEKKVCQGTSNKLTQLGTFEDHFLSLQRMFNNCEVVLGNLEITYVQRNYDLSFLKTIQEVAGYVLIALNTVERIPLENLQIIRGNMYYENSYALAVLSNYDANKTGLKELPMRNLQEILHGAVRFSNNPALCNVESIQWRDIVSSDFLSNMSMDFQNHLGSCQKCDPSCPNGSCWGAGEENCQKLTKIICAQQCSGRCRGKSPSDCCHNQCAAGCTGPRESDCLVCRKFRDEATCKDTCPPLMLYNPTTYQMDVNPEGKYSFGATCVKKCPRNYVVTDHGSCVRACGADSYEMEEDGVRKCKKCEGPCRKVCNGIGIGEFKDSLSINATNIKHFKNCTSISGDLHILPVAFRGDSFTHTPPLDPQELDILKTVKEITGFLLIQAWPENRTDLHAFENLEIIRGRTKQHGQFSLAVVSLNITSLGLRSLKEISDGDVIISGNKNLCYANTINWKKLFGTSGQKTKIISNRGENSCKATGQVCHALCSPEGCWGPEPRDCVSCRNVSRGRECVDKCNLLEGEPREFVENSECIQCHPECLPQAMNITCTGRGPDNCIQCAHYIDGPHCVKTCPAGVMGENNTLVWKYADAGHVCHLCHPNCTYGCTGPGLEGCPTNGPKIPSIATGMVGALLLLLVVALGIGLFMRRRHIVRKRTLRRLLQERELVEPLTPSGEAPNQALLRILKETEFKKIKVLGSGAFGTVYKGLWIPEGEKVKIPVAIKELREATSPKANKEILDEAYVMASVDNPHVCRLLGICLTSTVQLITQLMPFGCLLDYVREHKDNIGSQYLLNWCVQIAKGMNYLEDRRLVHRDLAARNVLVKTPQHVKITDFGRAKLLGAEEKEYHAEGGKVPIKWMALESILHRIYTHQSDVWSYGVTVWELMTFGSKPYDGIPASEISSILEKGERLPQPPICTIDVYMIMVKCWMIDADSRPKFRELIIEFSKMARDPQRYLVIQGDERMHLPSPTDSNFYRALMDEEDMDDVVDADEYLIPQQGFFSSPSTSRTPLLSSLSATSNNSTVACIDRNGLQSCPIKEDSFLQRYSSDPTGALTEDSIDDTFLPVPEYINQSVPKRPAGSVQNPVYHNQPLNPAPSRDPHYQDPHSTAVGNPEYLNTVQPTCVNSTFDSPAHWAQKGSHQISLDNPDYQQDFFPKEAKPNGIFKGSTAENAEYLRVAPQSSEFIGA
# How it was run: (§17)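 72 h proliferation, Ba/F3 EGFR mutants (no IL3, puromycin-selected pools, EGFR confirmed by Western blot). Seeding of 400 L858R, 600 L858R/C797S and 800 exon 19del/FQEA cells per well. CellTiter-Glo used; controls were […] (high) and medium alone (low).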
# [7] = molecular target: T7, EGFR exon 19del (Ba/F3 cells) (Homo sapiens, UniProt P00533); experiment: Inhibitor activity on EGFR phosphorylation (pEGFR AlphaLISA, 2 h), Ba/F3 EGFR exon 19del; conditions: read-out: Del19 IC50 (pEGFR)
# Text: as §1, §2, §3, §4, §5, §6, §7, §8, §9, §10, §11, §12, §13, §14, §15
# [8] = molecular target: T8, EGFR exon 20 FQEA Ins A763_V764 (Ba/F3 cells) (Homo sapiens, UniProt P00533, INS763FQEA); experiment: Inhibitor activity on EGFR-dependent cell growth (CellTiter-Glo, 72 h), Ba/F3 EGFR exon 20 FQEA Ins; conditions: read-out: BaF3 FQEA IC50
# T8 construct: expressed in transfected cells; host or cells: Ba/F3 (murine pro-B cells), retroviral transduction, puromycin selection, IL3-independent pool
# How it was run: as §17
# EGFR L858R (Ba/F3 cells) [9] = molecular target: T6, EGFR L858R (Ba/F3 cells); experiment: Inhibitor activity on EGFR phosphorylation (pEGFR AlphaLISA, 2 h), Ba/F3 EGFR L858R
# Text: as §1, §2, §3, §4, §5, §6, §7, §8, §9, §10, §11, §12, §13, §14, §15
# [10] = molecular target: T7, EGFR exon 19del (Ba/F3 cells); experiment: Inhibitor activity on EGFR-dependent cell growth (CellTiter-Glo, 72 h), Ba/F3 EGFR exon 19del; conditions: Ba/F3 EGFR exon 19del cell growth, read-out: BaF3 Del19 IC50
# How it was run: as §17
SMILES,IC50 [1] [nM],IC50 [2] [nM],IC50 (EGFR WT (Ba/F3 cells)) [nM],IC50 [3] [nM],IC50 (EGFR (CUTO14 cells)) [nM],IC50 [4] [nM],IC50 [5] [nM],IC50 (EGFR L858R (Ba/F3 cells) [6]) [nM],IC50 [7] [nM],IC50 [8] [nM],IC50 (EGFR L858R (Ba/F3 cells) [9]) [nM],IC50 [10] [nM]
COc1c(Cl)cc(F)cc1Nc1c(-c2ccnc(C)n2)[nH]c2c1C(=O)NC[C@@H]2C[C@@H]1COCCO1 [compound 651],< 100,< 100,100 to 1000,< 100,< 100,< 100,< 100,,,,,
"COc1c(F)cccc1Nc1c(-c2ccnc3ccc(C)nc23)[nH]c2c1C(=O)NCC2 [Compound 809, 3-[(3-fluoro-2-methoxyphenyl)amino]-2-(6-methyl-1,5-naphthyridin-4-yl)-1H,5H,6H,7H-pyrrolo[3,2-c]pyridin-4-one]",< 100,< 100,100 to 1000,< 100,,< 100,,< 100,< 100,< 100,< 100,< 100
COCC[C@@H]1CNC(=O)c2c1[nH]c(-c1ccncn1)c2Nc1cccc(F)c1OC [Compound 447a],< 100,< 100,100 to 1000,< 100,,< 100,,< 100,< 100,< 100,< 100,< 100
COc1ncc2nccc(-c3[nH]c4c(c3Nc3cccc(F)c3OC)C(=O)NCC4)c2n1 [compound 409],< 100,< 100,100 to 1000,< 100,,< 100,,< 100,< 100,< 100,< 100,< 100
COCC[C@H]1CNC(=O)c2c1[nH]c(-c1ccnc(C)n1)c2Nc1cccc(F)c1OC [453b],< 100,< 100,100 to 1000,< 100,< 100,< 100,< 100,< 100,,,,< 100
COc1c(F)cccc1Nc1c(-c2ccnc(C)n2)[nH]c2c(C[C@@H]3COCCO3)c[nH]c(=O)c12 [compound 658],< 100,< 100,100 to 1000,< 100,< 100,< 100,< 100,< 100,,,,< 100
COc1c(Cl)cccc1Nc1c(-c2ccncc2F)[nH]c2c(C[C@@H]3COCCO3)c[nH]c(=O)c12 [compound 657],< 100,< 100,100 to 1000,< 100,< 100,< 100,< 100,< 100,,,,< 100
"COc1c(Cl)cccc1Nc1c(-c2ccnc(N)n2)[nH]c2c1C(=O)NC[C@@H]2C[C@H]1COCCO1 [Compound 531, (7S)-2-(2-aminopyrimidin-4-yl)-3-[(3-chloro-2-methoxyphenyl)amino]-7-[(2S)-1,4-dioxan-2-ylmethyl]-1H,5H,6H,7H-pyrrolo[3,2-c]pyridin-4-one]",,< 100,100 to 1000,,< 100,< 100,< 100,< 100,,< 100,,< 100
